Measurements reported in patent publication US10793565B2, “Heterocyclic compounds as immunomodulators” (Incyte Corporation, priority 2016, dated 2020).

Target: PD-1/PD-L1 protein/protein interaction (Homo sapiens (Human), UniProt Q9NZQ7)
Assay: PD-1/PD-L1 Homogeneous Time-Resolved Fluorescence (HTRF) binding assay
Settings: recombinant human PD-L1 (19-238) His-tag, human PD-1 (25-167) Fc tag; 25° C., PBS pH 7.4
Experimental: Example A. PD-1/PD-L1 Homogeneous Time-Resolved Fluorescence (HTRF) Binding Assay
The assays were conducted in a standard black 384-well polystyrene plate with a final volume of 20 μL. Inhibitors were first serially diluted in DMSO and then added to the plate wells before the addition of other reaction components. The final concentration of DMSO in the assay was 1%. The assays were carried out at 25° C. in the PBS buffer (pH 7.4) with 0.05% Tween-20 and 0.1% BSA. Recombinant human PD-L1 protein (19-238) with a His-tag at the C-terminus was purchased from AcroBiosystems (PD1-H5229). Recombinant human PD-1 protein (25-167) with Fc tag at the C-terminus was also purchased from AcroBiosystems (PD1-H5257). PD-L1 and PD-1 proteins were diluted in the assay buffer and 10 μL was added to the plate well. Plates were centrifuged and proteins were preincubated with inhibitors for 40 minutes. The incubation was followed by the addition of 10 μL of HTRF detection buffer supplemented with Europium cryptate-labeled anti-human IgG (PerkinElmer-AD0212) specific for Fc and anti-His antibody conjugated to SureLight®-Allophycocyanin (APC, PerkinElmer-AD0059H). After centrifugation, the plate was incubated at 25° C. for 60 min. before reading on a PHERAstar FS plate reader (665 nm/620 nm ratio). Final concentrations in the assay were […], 10 nM PD-L1, 1 nM europium anti-human IgG and 20 nM anti-His-Allophycocyanin. IC50 determination was performed by fitting the curve of percent control activity versus the log of the inhibitor concentration using the GraphPad Prism 5.0 software.

PD-1/PD-L1 protein/protein interaction, sequence (Q9NZQ7 19-238): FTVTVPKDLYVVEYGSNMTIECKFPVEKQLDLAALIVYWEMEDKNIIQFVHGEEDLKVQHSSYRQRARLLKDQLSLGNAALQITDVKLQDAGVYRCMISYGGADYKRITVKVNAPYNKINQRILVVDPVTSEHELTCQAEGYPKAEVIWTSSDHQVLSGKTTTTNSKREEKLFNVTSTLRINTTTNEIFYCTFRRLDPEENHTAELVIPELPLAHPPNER

IC50 [nM]	Compound
≤ 10	Cc1c(NC(=O)c2ccc(CNCCO)cn2)cccc1-c1cccc(-c2nc3c(Cl)cc(CNCCO)cn3n2)c1C [Example 1, N-(3′-(8-chloro-6-((2-hydroxyethylamino)methyl)-[1,2,4]triazolo[1,5-a]pyridin-2-yl)-2,2′-dimethylbiphenyl-3-yl)-5-((2-hydroxyethylamino)methyl)picolinamide]
≤ 10	Cc1c(-c2nc3c(Cl)cc(CNCCO)cn3n2)cccc1-c1cccc(-c2nc3c(s2)CNCC3)c1C [Example 4, 2-((8-chloro-2-(2,2′-dimethyl-3′-(4,5,6,7-tetrahydrothiazolo[5,4-c]pyridin-2-yl)biphenyl-3-yl)-[1,2,4]triazolo[1,5-a]pyridin-6-yl)methylamino)ethanol]
≤ 10	Cc1c(-c2nc3c(Cl)cc(CNCCO)cn3n2)cccc1-c1cccc(NC(=O)c2ccc(CNCCO)cn2)c1Cl [Example 2, N-(2-chloro-3′-(8-chloro-6-((2-hydroxyethylamino)methyl)-[1,2,4]triazolo[1,5-a]pyridin-2-yl)-2′-methylbiphenyl-3-yl)-5-((2-hydroxyethylamino)methyl)picolinamide]
≤ 10	Cc1c(-c2nc3c(C#N)cc(CNCCO)cn3n2)cccc1-c1cccc(NC(=O)c2ccc(CNCCO)cn2)c1Cl [Example 3, N-(2-chloro-3′-(8-cyano-6-((2-hydroxyethylamino)methyl)-[1,2,4]triazolo[1,5-a]pyridin-2-yl)-2′-methylbiphenyl-3-yl)-5-((2-hydroxyethylamino)methyl)picolinamide]
